# According to patent US12577247B2 (BUGWORKS RESEARCH, INC., priority 2021, dated 2026):
# Where two headings read alike, the source gives them in different places.
# Key:
# A2A receptor [1] = biological target: T1, A2A receptor (Homo sapiens, UniProt P29274); test: A2aR antagonism IC50, cAMP TR-FRET in HEK-293 cells, high concentration of adenosine (30 μM); format: cell-based; details: HEK-293 cells expressing A2A receptor; agonist adenosine 30 μM; 2% HSA; inhibition of cAMP; read-out: A2AR IC50 (nM) (@30 μM Adenosine);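 also: compounds added 10 min before adenosine, then 30 min stimulation at room temperature in buffer with 100 µM rolipram and 30 µM EHNA, signal read 1 h after detection reagents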
# T1 construct: host or cells: HEK-293
# Procedure: A Time-Resolved Fluorescence Energy Transfer (TR-FRET) assay was used to show the inhibition of this cAMP production in HEK cells upon treatment with compounds of the Formula I of the present disclosure.
# HEK-293 cells expressing A2A receptor (#ES-011-C) or A2B receptor (#ES 013-C) were obtained from PerkinElmer. Cells were maintained in DMEM medium supplemented with 10% FBS and 200 μg/mL of G418 at 37° C. and 5% CO2. The cells were cultured in antibiotic free medium for a period of 16-20 hours prior to the assay. All subsequent steps of the assay are performed at room temperature (22-24° C.). […] About 1500 cells per well were pre-incubated for 10 minutes with the compounds of the present invention before adding the agonist Adenosine at a high concentration (30 μM) for a total stimulation time of 30 minutes. […] The assays were conducted in a stimulation buffer containing 1×DMEM, 5 mM HEPES, 2% Human serum albumin (HSA), 100 μM Rolipram and 30 μM erythro-9-(2-hydroxy-3-nonyl) adenine (EHNA). Serial dilutions of compounds were made in stimulation buffer to achieve a final concentration of high micromolar in a reaction volume of 10 μL. The total reaction volume was 10 μL (5 μL of cells, 2.5 μL of antagonist and 2.5 μL of agonist). […] The stimulation was ended, and the reaction completed by adding 5 μL of 4× Eu-cAMP tracer working solution and 5 μL of 4× ULight-anti-cAMP working solution. The TR FRET signal was measured after 1-hour incubation using a Tecan M1000 or a PerkinElmer Victor Nivo plate reader.
# A2B receptor [2] = biological target: T2, A2B receptor (Homo sapiens, UniProt P29275); test: A2bR antagonism IC50, cAMP TR-FRET in HEK-293 cells, high concentration of adenosine (30 μM); details: A2BR IC50 (nM) (@30 μM Adenosine), HEK-293 cells expressing A2B receptor; agonist adenosine 30 μM; 2% HSA; inhibition of cAMP;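 also: compounds preincubated 10 min with cells, then adenosine stimulation 30 min at room temperature in buffer with Rolipram 100 µM and EHNA 30 µM, TR-FRET read after 1 h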
# T2 sequence (P29275 1-332): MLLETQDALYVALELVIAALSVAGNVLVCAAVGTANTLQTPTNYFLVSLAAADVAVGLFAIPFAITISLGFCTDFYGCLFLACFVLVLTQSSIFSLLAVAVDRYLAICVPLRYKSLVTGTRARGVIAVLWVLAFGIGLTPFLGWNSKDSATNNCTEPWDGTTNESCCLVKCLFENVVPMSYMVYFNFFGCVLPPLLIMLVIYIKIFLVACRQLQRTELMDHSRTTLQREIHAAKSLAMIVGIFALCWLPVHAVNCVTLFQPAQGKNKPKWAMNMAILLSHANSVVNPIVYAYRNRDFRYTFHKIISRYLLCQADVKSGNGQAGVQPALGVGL
# hERG potassium channel = biological target: T3, hERG potassium channel (Homo sapiens, UniProt Q12809); test: hERG inhibition assay, Qpatch HTX automated electrophysiology; format: cell-based; details: CHO cell line stably expressing hERG; whole-cell patch clamp; room temperature
# T3 construct: a Chinese Hamster Ovary cell line stably expressing the full-length hERG potassium channel; expressed in transfected cells; host or cells: Chinese Hamster Ovary cell line
# Procedure: The representative compounds of formula I were tested for inhibition of the human ether a go-go related gene (hERG) K+ channel using Qpatch HTX automated electrophysiology. 6-Point concentration-response curves were generated using three-fold serial dilutions from a maximum final test concentration of […] and the results are presented in Table 3.
# Compounds were solubilised to 100 mM in DMSO before dilution in HBPS to 100 μM. […] Electrophysiological recordings were made from a Chinese Hamster Ovary cell line stably expressing the full-length hERG potassium channel. Single cell ionic currents were measured in whole-cell patch clamp configuration at room temperature (21-23° C.) using the Qpatch HTX platform (Sophion). Intracellular solution contained (mM): 120 KF, 20 KCl, 10 EGTA, 10 HEPES and was buffered to pH 7.3. […] Cells were clamped at a holding potential of −80 mV. Cells were stepped to +20 mV for 2 s then −40 mV for 3 s before returning to the holding potential. This sweep was repeated 10 times at 10 s intervals. hERG currents were measured from the tail step and referenced to the holding current. Compounds were then incubated for 2 minutes prior to a second measurement of ion channel current using an identical pulse train.
# [3] = system: human Peripheral blood mononuclear cells (PBMCs); test: Cytokine restoration assay in human PBMCs (IL-2, TNF-α) under NECA; format: cell-based; details: PBMC, NECA 5 μM, anti CD3/28 Dynabeads, 48 hours
# From the text: The ability of the invention compounds disclosed herein to restore the cytokines (IL-2 and TNF-α) release under adenosine agonist (NECA) environment evaluated using human Peripheral blood mononuclear cells (PBMCs). Peripheral blood was collected from healthy adult individuals in vacutainer tube. Peripheral blood mononuclear cells (PBMCs) were isolated via density gradient centrifugation, which uses Ficoll (Histopaque buffer) combined with short, low-speed centrifugation, to separate different cell populations. Diluted defibrinated blood was layered on a Ficoll and centrifuged at 1800 rpm for 20 minutes at 22° C. Differential migration of cells during centrifugation results in the formation of layers containing different cell types. The bottom layer contains erythrocytes. Remaining cells (i.e., lymphocytes, monocytes, and platelets) that are not dense enough to penetrate the Ficoll media layers (densities of 1.0770 g/ml), forms a buffy coat at the interface between the upper plasma layer and the Ficoll media layer. After carefully collected the buffy coat excess of platelets, Ficoll and plasma were removed by washing it with isotonic sterile phosphate buffered saline (PBS) and resulting cell pellet was resuspended in RPMI media with 5% FBS an P/S. The isolated PBMCs were allowed to be conditioned for an hour at 37° C. in a CO2 incubator. These cells were subsequently used for specific downstream assay. Isolated PBMC (3×10^5 cells/200 μl) were plated in 96 well microtiter plate in RPMI media with 5% FBS in presence of 100 units of penicillin plus 100 μg/ml streptomycin. NECA was added at a final concentration of 5 μM, control wells were maintained without NECA suppression (i.e., no NECA control). The assay plates were incubated at 37° C. for 4 hours in a CO2 incubator. Various concentrations of test compounds were added into respective wells in triplicates. Pre-washed anti CD3/28 Dynabeads (2.5 μL) was added for CD4 and CD8 + T-cell stimulation (to obtain a bead-to-cell ratio of 1:1). The assay plate was incubated at 37° C. in 5% CO2 and 20% ambient O2 maximum for 48 hours. At the end of 48 hours, the activated PBMC were harvested, and culture supernatants were used directly for further analysis. Forty-eight hours post treatment, 15 μL of cell-free supernatant was collected and assayed for secreted IL2 using the human Interleukin 2 (hIL2)—LANCE Ultra Detection Kit (Perkin Elmer). Similarly, level of soluble Tumor Necrosis Factor alpha (TNFα) was determined using human TNFα LANCE Ultra Detection Kit (Perkin Elmer). T-FRET signal was measured with Tecan spark multimode plate reader. Data was analyzed by graph-pad prism9. EC50 s of the compounds of Formula (I) in restoration of cytokine release under adenosine agonist from the human PBMCS are presented in Table 2
# A2B receptor [4] = biological target: T2, A2B receptor; test: A2bR antagonism IC50, cAMP TR-FRET (Lance Ultra) in HEK-293 cells, NECA as agonist; format: cell-based; design: host or cells: HEK-293; details: HEK-293 cells expressing A2B receptor; agonist NECA 30 nM (EC90); inhibition of cAMP
# From the text: (§1) Adenosine A2A receptors and Adenosine A2B receptors induce the production of cAMP when activated/stimulated by an agonist like adenosine or 5′-(N-Ethylcarboxamido) adenosine (NECA). A Time-Resolved Fluorescence Energy Transfer (TR-FRET) assay was used to show the inhibition of this cAMP production in HEK cells upon treatment with compounds of the Formula I of the present disclosure.
# (§2) HEK-293 cells expressing A2A receptor (#ES-011-C) or A2B receptor (#ES 013-C) were obtained from PerkinElmer. Cells were maintained in DMEM medium supplemented with 10% FBS and 200 μg/mL of G418 at 37° C. and 5% CO2. The cells were cultured in antibiotic free medium for a period of 16-20 hours prior to the assay. All subsequent steps of the assay are performed at room temperature (22-24° C.). The cells were harvested at about 80% confluency by gentle flushing with PBS, recovered by centrifugation and resuspended in stimulation buffer at the concentration of 5.0×10^6 cells/mL.
# (§3) The assays were conducted in a stimulation buffer containing 1×DMEM, 5 mM HEPES, 0.1% BSA stabilizer and 20-30 μM Rolipram. Serial dilutions of compounds were made in stimulation buffer to achieve a final concentration of high micromolar (10 μM to 0.08 nM) in the reaction volume of 10 μL. The total reaction volume was 10 μL (5 μL of cells, 2.5 μL of antagonist and 2.5 μL of agonist). The stimulation was ended, and the reaction completed by adding 5 μL of 4× Eu-cAMP tracer working solution and 5 μL of 4× ULight-anti-cAMP working solution. The TR-FRET signal was measured after 1-hour incubation using a Tecan M1000 reader.
# A2A receptor [5] = biological target: T1, A2A receptor; test: A2aR antagonism IC50, cAMP TR-FRET (Lance Ultra) in HEK-293 cells, NECA as agonist; format: cell-based; details: A2AR IC50 (nM) (@5 nM NECA), HEK-293 cells expressing A2A receptor; agonist NECA 5 nM (EC90); inhibition of cAMP;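 also: compounds tested from 10 µM down to 0.08 nM in buffer with Rolipram at room temperature, TR-FRET cAMP signal read 1 h after adding Eu-cAMP tracer and ULight anti-cAMP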
# From the text: as §1, §2, §3
# [6] = read-out: IL-2 restoration EC50
# [7] = read-out: TNF-α restoration EC50
# T1 sequence (P29274 whole entry): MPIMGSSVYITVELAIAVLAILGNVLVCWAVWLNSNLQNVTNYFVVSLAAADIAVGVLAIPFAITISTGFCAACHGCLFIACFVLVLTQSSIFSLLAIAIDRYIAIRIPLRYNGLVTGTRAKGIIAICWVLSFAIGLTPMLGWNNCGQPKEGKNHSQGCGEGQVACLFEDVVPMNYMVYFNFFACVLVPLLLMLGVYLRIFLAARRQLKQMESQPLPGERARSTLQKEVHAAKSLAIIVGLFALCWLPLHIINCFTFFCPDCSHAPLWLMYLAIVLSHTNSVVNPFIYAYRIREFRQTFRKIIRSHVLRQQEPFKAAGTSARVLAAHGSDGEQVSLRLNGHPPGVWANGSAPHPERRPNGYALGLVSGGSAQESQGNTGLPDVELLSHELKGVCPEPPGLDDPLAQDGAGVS
# T3 sequence (Q12809 whole entry): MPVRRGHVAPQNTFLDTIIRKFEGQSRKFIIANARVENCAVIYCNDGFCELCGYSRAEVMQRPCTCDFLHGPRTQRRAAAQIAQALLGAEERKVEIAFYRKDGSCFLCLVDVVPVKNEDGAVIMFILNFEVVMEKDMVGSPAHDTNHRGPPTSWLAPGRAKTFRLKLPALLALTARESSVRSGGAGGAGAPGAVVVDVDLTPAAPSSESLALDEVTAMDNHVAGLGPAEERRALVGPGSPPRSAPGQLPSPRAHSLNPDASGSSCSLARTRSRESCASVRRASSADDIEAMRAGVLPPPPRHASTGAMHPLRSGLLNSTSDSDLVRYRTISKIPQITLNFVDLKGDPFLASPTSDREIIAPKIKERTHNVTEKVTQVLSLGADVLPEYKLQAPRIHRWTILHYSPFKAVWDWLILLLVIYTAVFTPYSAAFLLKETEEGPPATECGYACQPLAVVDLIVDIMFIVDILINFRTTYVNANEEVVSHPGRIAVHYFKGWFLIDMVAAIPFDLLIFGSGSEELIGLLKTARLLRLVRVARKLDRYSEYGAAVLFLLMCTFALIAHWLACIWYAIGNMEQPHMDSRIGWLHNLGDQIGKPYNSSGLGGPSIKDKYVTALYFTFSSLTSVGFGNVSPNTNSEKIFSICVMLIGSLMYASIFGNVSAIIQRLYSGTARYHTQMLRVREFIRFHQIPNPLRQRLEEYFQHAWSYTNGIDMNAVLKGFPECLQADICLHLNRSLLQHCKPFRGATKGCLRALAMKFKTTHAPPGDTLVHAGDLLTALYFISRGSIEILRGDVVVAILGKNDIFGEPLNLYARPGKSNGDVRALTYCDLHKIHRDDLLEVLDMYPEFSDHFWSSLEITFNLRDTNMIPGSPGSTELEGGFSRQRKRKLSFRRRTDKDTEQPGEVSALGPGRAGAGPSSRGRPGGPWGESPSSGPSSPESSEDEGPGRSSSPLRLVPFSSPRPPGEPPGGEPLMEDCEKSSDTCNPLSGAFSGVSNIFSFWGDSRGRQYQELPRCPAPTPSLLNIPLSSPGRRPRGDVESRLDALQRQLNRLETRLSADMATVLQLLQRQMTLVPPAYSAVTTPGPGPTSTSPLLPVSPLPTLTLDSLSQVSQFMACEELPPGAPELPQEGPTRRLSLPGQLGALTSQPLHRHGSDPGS
SMILES,IC50 (A2A receptor [1]) [nM],IC50 (A2B receptor [2]) [nM],IC50 (A2B receptor [4]) [nM],IC50 (A2A receptor [5]) [nM],IC50 (hERG potassium channel) [nM],"EC50 [3, 6] [nM]","EC50 [3, 7] [nM]"
"CCc1c(C)nn2c(N)c(C#N)c(NCCc3cccc(CCCO)n3)nc12 [Example 155, 7-amino-3-ethyl-5-((2-(6-(3-hydroxypropyl)pyridin-2-yl)ethyl)amino)-2-methylpyrazolo[1,5-a]pyrimidine-6-carbonitrile]",181,429,,,> 100000,3.6,3.2
"CCc1c(C)nn2c(N)c(C#N)c(NCCc3ccn(C4CCC4CO)n3)nc12 (single isomer, unassigned; (-)) [Example 79, (−)-7-amino-3-ethyl-5-((2-(1-(2-(hydroxymethyl)cyclobutyl)-1H-pyrazol-3-yl)ethyl)amino)-2-methylpyrazolo[1,5-a]pyrimidine-6-carbonitrile]",88,586,2,< 0.1,> 100000,2.2,1.4
"Cc1nn2c(N)c(C#N)c(NCCc3ccn(C4CCC4CN)n3)nc2c1Cl (centres unmarked) [Example 95, 7-amino-5-((2-(1-(2-(aminomethyl)cyclobutyl)-1H-pyrazol-3-yl)ethyl)amino)-3-chloro-2-methylpyrazolo[1,5-a]pyrimidine-6-carbonitrile]",112,1060,53,1.2,,,
"CCc1c(C)nn2c(N)c(C#N)c(NCCc3ccn(C(C)(C)CO)n3)nc12 [Example 32, 7-amino-3-ethyl-5-((2-(1-(1-hydroxy-2-methylpropan-2-yl)-1H-pyrazol-3-yl)ethyl)amino)-2-methylpyrazolo[1,5-a]pyrimidine-6-carbonitrile]",452,2130,7.3,0.5,,,
"CCc1c(C)nn2c(N)c(C#N)c(NCCc3cccc(CO)n3)nc12 [Example 45, 7-amino-3-ethyl-5-((2-(6-(hydroxymethyl)pyridin-2-yl)ethyl)amino)-2-methylpyrazolo[1,5-a] pyrimidine-6-carbonitrile]",935,650,2.9,0.58,,,

# Now from value to compound, other results behind:
IC50 (A2A receptor [1]) [nM],IC50 (A2B receptor [2]) [nM],IC50 (A2B receptor [4]) [nM],IC50 (A2A receptor [5]) [nM],SMILES,IC50 (hERG potassium channel) [nM],"EC50 [3, 6] [nM]","EC50 [3, 7] [nM]"
756,12200,4.7,0.22,"CCc1c(C(F)F)nn2c(N)c(C#N)c(NCCc3ccn(C4(CO)CC4)n3)nc12 [Example 58, 7-amino-2-(difluoromethyl)-3-ethyl-5-((2-(1-(1-(hydroxymethyl)cyclopropyl)-1H-pyrazol-3-yl)ethyl)amino) pyrazolo[1,5-a]pyrimidine-6-carbonitrile]",,,
43,2550,19,0.2,"Cc1nn2c(N)c(C#N)c(NCCc3cc(C)n(C4(CO)CC4)n3)nc2c1C [Example 86, 7-amino-5-((2-(1-(1-(hydroxymethyl)cyclopropyl)-5-methyl-1H-pyrazol-3-yl)ethyl)amino)-2,3-dimethylpyrazolo[1,5-a]pyrimidine-6-carbonitrile]",,,
635,4260,6,0.3,"Cc1nn2c(N)c(C#N)c(NCCc3cccc(C4(CO)CC4)n3)nc2c1C [Example 49, 7-amino-5-((2-(6-(1-(hydroxymethyl)cyclopropyl)pyridin-2-yl)ethyl)amino)-2,3-dimethylpyrazolo[1,5-a]pyrimidine-6-carbonitrile]",,,
2160,2370,3.6,0.2,"CCc1c(C)nn2c(N)c(C#N)c(NCCc3cccc(C4(CO)CC4)n3)nc12 [Example 50, 7-amino-3-ethyl-5-((2-(6-(1-(hydroxymethyl)cyclopropyl)pyridin-2-yl)ethyl)amino)-2-methylpyrazolo[1,5-a] pyrimidine-6-carbonitrile]",,,
78,1770,7,0.12,"Cc1nn2c(N)c(C#N)c(NCCc3ccn(C4(CO)CC4)n3)nc2c1Cl [Example 37, 7-amino-3-chloro-5-((2-(1-(1-(hydroxymethyl)cyclopropyl)-1H-pyrazol-3-yl)ethyl)amino)-2-methylpyrazolo[1,5-a]pyrimidine-6-carbonitrile]",,,
